Reference: article PMC11435058, “Synthesis of New Thiazole-Privileged Chalcones as Tubulin Polymerization Inhibitors with Potential Anticancer Activities” (Pharmaceuticals, 2024)

Key:
[1] = test system: TK-10; experiment: NCI-60 anticancer screen (SRB; single dose and five doses); conditions: Homo sapiens, TK-10, 48 h, read-out: Growth Percentage
[2] = test system: MDA-MB-435; experiment: as above; conditions: Homo sapiens, MDA-MB-435, 48 h, read-out: Growth Percentage
[3] = test system: HCT-116; experiment: as above; conditions: Homo sapiens, HCT-116, 48 h, read-out: Growth Percentage
[4] = test system: OVCAR-8; experiment: as above; conditions: Homo sapiens, OVCAR-8, 48 h, read-out: Growth Percentage
[5] = test system: HCC-2998; experiment: as above; conditions: Homo sapiens, HCC 2998, 48 h, read-out: Growth Percentage
[6] = test system: HS 578T; experiment: as above; conditions: Homo sapiens, 48 h, read-out: Growth Percentage
[7] = test system: OVCAR-5; experiment: as above; conditions: Homo sapiens, OVCAR-5, 48 h, read-out: Growth Percentage
[8] = test system: UO-31; experiment: as above; conditions: Homo sapiens, UO-31, 48 h, read-out: Growth Percentage
[9] = test system: SNB-19; experiment: cells; conditions: Homo sapiens, SNB-19, 48 h, read-out: Growth Percentage
[10] = test system: SK-OV-3; experiment: NCI-60 anticancer screen (SRB; single dose and five doses); conditions: Homo sapiens, SK-OV-3, 48 h, read-out: Growth Percentage
[11] = test system: IGROV1; experiment: as above; conditions: Homo sapiens, IGROV-1, 48 h, read-out: Growth Percentage
[12] = test system: NCI-H23; experiment: as above; conditions: Homo sapiens, NCI-H23, 48 h, read-out: Growth Percentage
[13] = test system: HOP-62; experiment: as above; conditions: Homo sapiens, HOP-62, 48 h, read-out: Growth Percentage
[14] = test system: LOX IMVI; experiment: as above; conditions: Homo sapiens, 48 h, read-out: Growth Percentage
[15] = test system: CCRF-CEM; experiment: NCI-60 anticancer screen (SRB; single dose 10 μM and five doses); conditions: Homo sapiens, 48 h, read-out: Growth Percentage
[16] = test system: SR; experiment: NCI-60 anticancer screen (SRB; single dose and five doses); conditions: Homo sapiens, 48 h, read-out: Growth Percentage
[17] = test system: SK-MEL-5; experiment: as above; conditions: Homo sapiens, SK-MEL-5, 48 h, read-out: Growth Percentage
[18] = test system: SF-539; experiment: as above; conditions: Homo sapiens, SF-539, 48 h, read-out: Growth Percentage
[19] = test system: DU-145; experiment: as above; conditions: Homo sapiens, DU-145, 48 h, read-out: Growth Percentage
[20] = test system: RPMI-8226; experiment: as above; conditions: Homo sapiens, RPMI-8226, 48 h, read-out: Growth Percentage
[21] = test system: CAKI-1; experiment: as above; conditions: Homo sapiens, CAKI-1, 48 h, read-out: Growth Percentage
[22] = test system: KM12; experiment: as above; conditions: Homo sapiens, KM12, 48 h, read-out: Growth Percentage
[23] = test system: NCI/ADR-RES; experiment: as above; conditions: Homo sapiens, 48 h, read-out: Growth Percentage
[24] = test system: EKVX; experiment: as above; conditions: Homo sapiens, 48 h, read-out: Growth Percentage
[25] = test system: MCF7; experiment: as above; conditions: Homo sapiens, MCF7, 48 h, read-out: Growth Percentage
[26] = test system: OVCAR-4; experiment: as above; conditions: Homo sapiens, OVCAR-4, 48 h, read-out: Growth Percentage
[27] = test system: MDA-MB-231/ATCC; experiment: as above; conditions: Homo sapiens, MDA-MB-231, 48 h, read-out: Growth Percentage
[28] = test system: SF-295; experiment: as above; conditions: Homo sapiens, SF-295, 48 h, read-out: Growth Percentage
[29] = test system: HT29; experiment: as above; conditions: Homo sapiens, HT-29, 48 h, read-out: Growth Percentage

| Structure (SMILES) | activity at 10 µM [2] | activity at 10 µM [3] | activity at 10 µM [4] | activity at 10 µM [5] | activity at 10 µM [6] | activity at 10 µM [7] | activity at 10 µM [8] | activity at 10 µM [9] | activity at 10 µM [10] | activity at 10 µM [11] | activity at 10 µM [12] | activity at 10 µM [13] | activity at 10 µM [14] | activity at 10 µM [15] | activity at 10 µM [16] | activity at 10 µM [17] | activity at 10 µM [18] | activity at 10 µM [19] | activity at 10 µM [20] | activity at 10 µM [21] | also measured |
| --- | --- | --- | --- | --- | --- | --- | --- | --- | --- | --- | --- | --- | --- | --- | --- | --- | --- | --- | --- | --- | --- |
| COc1cccc(/C=C/C(=O)c2sc(=S)[nH]c2C)c1OC [2m, (E)-3-(2,3-Dimethoxyphenyl)-1-(4-Methyl-2-Thioxo-2,3-Dihydrothiazol-5-yl)Prop-2-En-1-One] | 51.9% | 46.5% | 44.6% | 79.8% | 49.2% | 81.7% | 53.7% | 37.2% | 85.6% | 73.9% | 86.5% | 91.8% | 21.7% | 12.4% | 5.15% | 23.5% | 22.7% | 42% | 9.09% | 41.9% | activity at 10 µM [1]: 64.5%; activity at 10 µM [22]: 25.3%; activity at 10 µM [23]: 30.9%; activity at 10 µM [24]: 54.5%; activity at 10 µM [25]: 16.6%; activity at 10 µM [26]: 62.2%; activity at 10 µM [27]: 68.3%; activity at 10 µM [28]: 26.3% |
| Cc1[nH]c(=S)sc1C(=O)/C=C/c1ccccc1Cl [2d, (E)-3-(2-Chlorophenyl)-1-(4-Methyl-2-Thioxo-2,3-Dihydrothiazol-5-yl)Prop-2-En-1-One] | 80.8% | 44.6% | 85.4% | 132% | 92.8% | 116% | 73.7% | 85.2% | 118% | 91.9% | 91.8% | 91.7% | 57.5% | 46.8% | 14.1% | 68.5% | 93.6% | 76% | 28.6% | 68.5% | activity at 10 µM [29]: 122%; activity at 10 µM [22]: 63.8%; activity at 10 µM [23]: 88.8%; activity at 10 µM [24]: 35.6%; activity at 10 µM [25]: 28.9%; activity at 10 µM [26]: 90.3%; activity at 10 µM [27]: 101%; activity at 10 µM [28]: 82.5% |
| Cc1[nH]c(=S)sc1C(=O)/C=C/c1cccc(F)c1 [2b, (E)-3-(3-Fluorophenyl)-1-(4-Methyl-2-Thioxo-2,3-Dihydrothiazol-5-yl)Prop-2-En-1-One] | 35.9% | 21.2% | 60.5% | 58.2% | 79.8% | 88.2% | 44.3% | 44% | 111% | 32.3% | 71.1% | 34.8% | 13.8% | 15.4% | 6.82% | 62.2% | 6.17% | 12.9% | 15.2% | 37.7% | activity at 10 µM [29]: 47.1%; activity at 10 µM [22]: 11.9%; activity at 10 µM [23]: 10.8%; activity at 10 µM [24]: 68.6%; activity at 10 µM [25]: 7.97%; activity at 10 µM [26]: 79.5%; activity at 10 µM [27]: 67.4%; activity at 10 µM [28]: 38.4% |
